Bridge positions count the residues as written; N and C are the ends. Square brackets hold non-standard residues; d marks the D form. Peptide text beside a SMILES is read from it. * marks the point of attachment. ξ: configuration not given here. Phe(4-COOH) = N[C@@H](Cc1ccc(C(=O)O)cc1)C(=O)O; Bip = N[C@@H](Cc1ccc(-c2ccccc2)cc1)C(=O)O; Phe(3-OMe) = COc1cccc(C[C@H](N)C(=O)O)c1; Phe(3-Me) = Cc1cccc(C[C@H](N)C(=O)O)c1; Nva(4-oxo) = CC(=O)C[C@H](N)C(=O)O; 3Pal = N[C@@H](Cc1cccnc1)C(=O)O; 4Pal = N[C@@H](Cc1ccncc1)C(=O)O; Cha = N[C@@H](CC1CCCCC1)C(=O)O; Ile(3ξ) = CCC(C)[C@H](N)C(=O)O; Thr(3ξ) = CC(O)[C@H](N)C(=O)O; hSer = N[C@@H](CCO)C(=O)O; Carboxymethyl = O=C(O)C*; NMeA = CN[C@@H](C)C(=O)O; Dap = NC[C@H](N)C(=O)O; ξC = NC(CS)C(=O)O
What follows are compounds tested against T1, PE-labeled human PD-L1-Ig binding to Jurkat cell line over-expressing human PD-1 (Jurkat-PD-1) (Homo sapiens, UniProt Q15116) (assay: Jurkat-PD-1 Cell Binding High-Content Screening Assay (CBA): Method 1). Settings: Jurkat-hPD-1 cells, PE-labeled PD-L1-Ig 20 nM final; read-out: Jurkat HPDL1 PD1 IC50 (uM) (Method 1).
T1 construct: expressed in transfected cells; host or cells: Jurkat
T1 sequence (Q15116 25-288): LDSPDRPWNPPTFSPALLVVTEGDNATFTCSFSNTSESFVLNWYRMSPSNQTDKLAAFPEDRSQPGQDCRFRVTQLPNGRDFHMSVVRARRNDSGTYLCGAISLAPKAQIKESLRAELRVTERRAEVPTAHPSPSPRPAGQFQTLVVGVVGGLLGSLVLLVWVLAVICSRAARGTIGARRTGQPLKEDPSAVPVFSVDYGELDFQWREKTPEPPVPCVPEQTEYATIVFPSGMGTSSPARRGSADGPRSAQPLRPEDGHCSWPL

| IC50 | SMILES |
| --- | --- |
| 0.04 µM | CCC(C)[C@@H]1NC(=O)[C@H](Cc2ccc(-c3ccccc3)cc2)NC(=O)[C@H](C(C)C)NC(=O)[C@H](Cc2c[nH]c3ccccc23)NC(=O)[C@H](CC(=O)O)NC(=O)[C@H](Cc2ccc(C(=O)O)cc2)NC(=O)[C@H](Cc2ccc(OCC(=O)O)cc2)NC(=O)CSC[C@@H](C(=O)N[C@@H](CCC(=O)O)C(=O)N[C@H](C(N)=O)C(=O)O)NC(=O)[C@H](CO)NC(=O)[C@H](C(C)C)NC(=O)[C@H](CC2CCCCC2)NC(=O)[C@H](CC(N)=O)NC(=O)[C@@H](CC(C)C)NC(=O)[C@H](C)N(C)C1=O (stereo partly drawn) [Compound 2008] |
| 0.02 µM | CC(C)C[C@@H]1NC(=O)[C@H](Cc2c[nH]c3ccccc23)NC(=O)[C@H](CC(=O)O)NC(=O)[C@H](CCO)NC(=O)[C@H](Cc2ccccc2)NC(=O)CSC[C@@H](C(=O)N[C@@H](C)C(=O)N[C@@H](CCC(=O)O)C(N)=O)NC(=O)[C@H](CO)NC(=O)[C@H](C(C)C)NC(=O)[C@H](CC(C)C)NC(=O)[C@H](CC(N)=O)NC(=O)[C@@H](CC(C)C)NC(=O)[C@H](C)N(C)C(=O)[C@H](C(C)C)NC(=O)[C@H](Cc2ccc(-c3ccccc3)cc2)NC1=O [Compound 2009] ({CH2CO}-F[hSer]DWL[Bip]V[NMeA][dL]NLVSCAE-NH2; thioether N-14) |
| 0.01 µM | CC(=O)C[C@@H]1NC(=O)[C@H](Cc2ccc(OCC(=O)O)cc2)NC(=O)[C@H](Cc2ccccc2)NC(=O)CSC[C@@H](C(=O)N[C@@H](C)C(=O)N[C@@H](CCCCN)C(N)=O)NC(=O)[C@H](CO)NC(=O)[C@H](C(C)C)NC(=O)[C@H](CC(C)C)NC(=O)[C@H](CC(N)=O)NC(=O)[C@@H](CC(C)C)NC(=O)[C@H](C)N(C)C(=O)[C@H](C(C)C)NC(=O)[C@H](Cc2ccc(-c3ccccc3)cc2)NC(=O)[C@H](CC(C)C)NC(=O)[C@H](Cc2c[nH]c3ccccc23)NC1=O [Compound 2013] ({CH2CO}-FY(Carboxymethyl)[Nva(4-oxo)]WL[Bip]V[NMeA][dL]NLVSCAK-NH2; thioether N-14) |

Continued, compound first:

| SMILES | IC50 |
| --- | --- |
| CCC(C)[C@@H]1NC(=O)[C@H](Cc2ccc(-c3ccccc3)cc2)NC(=O)[C@H](C(C)C)NC(=O)[C@H](Cc2c[nH]c3ccccc23)NC(=O)[C@H](CC(=O)O)NC(=O)[C@H](Cc2ccc(C(=O)O)cc2)NC(=O)[C@H](Cc2ccc(OCC(=O)O)cc2)NC(=O)CSC[C@@H](C(=O)NCC(=O)N[C@@H](CN)C(=O)O)NC(=O)[C@H](C(C)O)NC(=O)[C@H](C(C)C)NC(=O)[C@H](CC2CCCCC2)NC(=O)[C@H](CC(N)=O)NC(=O)[C@@H](CC(C)C)NC(=O)[C@H](C)N(C)C1=O (stereo partly drawn) [Compound 2005] ({CH2CO}-Y(Carboxymethyl)[Phe(4-COOH)]DWV[Bip][Ile(3ξ)][NMeA][dL]N[Cha]V[Thr(3ξ)]CG[Dap]-OH; thioether N-14) | 0.02 µM |
| CCC(C)[C@@H]1NC(=O)[C@H](Cc2ccc(-c3ccccc3)cc2)NC(=O)[C@H](C(C)C)NC(=O)[C@H](Cc2c[nH]c3ccccc23)NC(=O)[C@H](CC(=O)O)NC(=O)[C@H](Cc2cccc(OC)c2)NC(=O)[C@H](Cc2cccnc2)NC(=O)CSC[C@@H](C(=O)NCC(=O)N[C@@H](CN)C(=O)O)NC(=O)[C@H](C(C)O)NC(=O)[C@H](C(C)C)NC(=O)[C@H](CC2CCCCC2)NC(=O)[C@H](CC(N)=O)NC(=O)[C@@H](CC(C)C)NC(=O)[C@H](C)N(C)C1=O (stereo partly drawn) [Compound 2006] ({CH2CO}-[3Pal][Phe(3-OMe)]DWV[Bip][Ile(3ξ)][NMeA][dL]N[Cha]V[Thr(3ξ)]CG[Dap]-OH; thioether N-14) | 0.04 µM |
| CCC(C)[C@@H]1NC(=O)[C@H](Cc2ccc(-c3ccccc3)cc2)NC(=O)[C@H](C(C)C)NC(=O)[C@H](Cc2cccc(C)c2)NC(=O)[C@H](CC(=O)O)NC(=O)[C@H](Cc2ccc(OCC(=O)O)cc2)NC(=O)[C@H](Cc2ccncc2)NC(=O)CSCC(C(=O)N[C@@H](CCC(=O)O)C(=O)N[C@@H](CN)C(=O)O)NC(=O)[C@H](CO)NC(=O)[C@H](C(C)C)NC(=O)[C@H](CC2CCCCC2)NC(=O)[C@H](CC(N)=O)NC(=O)[C@@H](CC(C)C)NC(=O)[C@H](C)N(C)C1=O (stereo partly drawn) [Compound 2007] ({CH2CO}-[4Pal]Y(Carboxymethyl)D[Phe(3-Me)]V[Bip][Ile(3ξ)][NMeA][dL]N[Cha]VS[ξC]E[Dap]-OH; thioether N-14) | 0.01 µM |
